Where a name gives a salt, the structure may show the parent alone.
Tests used:
[1] = test system: A549 cells; test: Colony formation assay; type: cell-based, human; details: for effect of heme addition on colony formation: 10 μM heme add-back; for effect of iron addition on colony formation: 50 μM ferric chloride; for colony formation: 6 days, 0.5 mM succinyl acetone, 10 μM HSPs, 50 μM DFX, 10 μM SnPP
Description: (§1) Cell proliferation was measured by detecting the luciferase activity in live cells and by using a hemocytometer. Cell migration and invasion assays were carried out with BD Falcon cell culture inserts (Corning Life Sciences) and the manufacturer's cell migration, chemotaxis, and invasion assay protocols. For the colony formation assay, 5000 NSCLC cells were seeded in every well in 6-well tissue culture plates in triplicates. Cells were treated with 0.5 mM succinyl acetone (Sigma Aldrich), 10 μM HSPs, 50 μM deferoxamine mesylate (DFX), 10 μM zinc (II) protoporphyrin IX, 10 μM tin (IV) protoporphyrin IX, or 50 μM ferric chloride for 6 days. For heme add-back experiments, 10 μM heme was included. Medium was changed every 3 days. After 6 days of treatment, cells were fixed with 70% ethanol and stained with 0.5% crystal violet. Images were acquired by using Carestream Gel Logic GL-112 imaging system.

[2] = test system: H1299 cells; test: Colony formation assay; type: cell-based, human; details: for effect of heme addition on colony formation: 10 μM heme add-back; for effect of iron addition on colony formation: 50 μM ferric chloride; for colony formation: 6 days, 0.5 mM succinyl acetone, 10 μM HSPs, 50 μM DFX, 10 μM SnPP
Description: as §1

[3] = references 55, 56; cited from earlier work
[4] = test system: H1299 NSCLC lung tumor xenografts; type: in vivo; details: SA 50 mg/kg I.V. every 3 days, from 4 days after implantation
[5] = test system: A549 NSCLC cells; test: Cell invasion assay (Matrigel invasion chambers); type: cell-based, human; details: 10 μM heme
[6] = test system: A549 NSCLC cells; test: Cell migration assay (Transwell inserts); type: cell-based, human; details: 10 μM heme
Description: as §1

[7] = test system: H1299 NSCLC cells; test: Cell migration assay (Transwell inserts); type: cell-based, human; details: heme add-back 10 μM, b23 prints 10 mM
Description: as §1

[8] = test system: H1299 NSCLC cells; test: Cell invasion assay (Matrigel invasion chambers); type: cell-based, human; details: heme add-back 10 μM, b23 prints 10 mM
[9] = test system: 5-aminolevulic synthase (ALAS1); details: previous studies, non-erythroid cells; cited from earlier work
[10] = test system: heme oxygenases; details: reference 51; cited from earlier work

| Compound | effect of heme addition on colony formation [1] | effect of iron addition on colony formation [1] | colony formation [1] | effect of heme addition on colony formation [2] | effect of iron addition on colony formation [2] | colony formation [2] | toxicity to animals [3] | suppression of lung tumors (BLI) [4] | effect of heme addition on reduced invasion [5] | effect of heme addition on reduced migration [6] | effect of heme addition on reduced migration [7] | effect of heme addition on reduced invasion [8] | inhibition of heme biosynthesis [9] | inhibition of the activities of heme oxygenases [10] |
| --- | --- | --- | --- | --- | --- | --- | --- | --- | --- | --- | --- | --- | --- | --- |
| CC(=O)CC(=O)CCC(=O)O [succinyl acetone, Succinyl acetone] | largely reversed | did not reverse | strongly suppressed colony formation | largely reversed | did not reverse | strongly suppressed colony formation | low toxicity | not very effective | largely reversed | largely reversed | largely reversed | largely reversed | effective inhibitor | – |
| CC(=O)N(O)CCCCCNC(=O)CCC(=O)N(O)CCCCCNC(=O)CCC(=O)N(O)CCCCCN [DFX, Deferoxamine mesylate] | partially reversed | largely reversed | reduced colony formation | partially reversed | largely reversed | reduced colony formation | – | – | – | – | – | – | – | – |
| Tin (IV) protoporphyrin [SnPP] | – | – | appeared to reduce colony formation | – | – | appeared to reduce colony formation | – | – | – | – | – | – | – | strong inhibitor |

Source: patent US12168678B2, “Heme sequesting peptides and uses therefor” (Board of Regents, The University of Texas System, priority 2019, dated 2024)
